Measured values reported in patent US20140206681A1, “BTK INHIBITORS” (priority 2013, published 2014).
pIC50: −log10 of the molar value.

Tests used:
[1] = test system: HeLa cells; assay: [3H]Adenosine uptake functional cellular assay; type: cell-based; settings: Homo sapiens, HeLa, accumulation of [3H]adenosine into HeLa cells; compound range 10 μM to […]; read-out: Adenosine uptake inhibition IC50
Experimental: Compounds are also screened in an adenosine uptake functional cellular assay using the protocol described below. The adenosine uptake inhibition assay may be used to identify compounds with the potential for a negative cardiovascular side effect.
Adenosine uptake activity was determined by monitoring the accumulation of tritiated adenosine into HeLa cells (ATCC catalog # CCL-2) using a PMT-based radiometric detection instrument. […] These cells were incubated overnight at 37° C. in a humidified atmosphere with 5% (v/v) CO2. After this time the growth medium was removed and replaced with 40 μL assay medium comprising: Hanks balanced salts solution (HBSS; Thermo Fisher Catalog # SH30268.01)+5% (v/v) FBS. […] 40 μL of compound in the assay medium was dispensed into individual wells of the Cytostar-T plates and the plates were incubated for 30 minutes under ambient laboratory conditions. Following this incubation, 20 μL of 500 nM [^3H]adenosine (American Radiolabeled Chemicals Inc. Catalog # ART0287) was added in the assay medium and incubated for a further 60 minutes under ambient laboratory conditions. The amount of radiolabel accumulation was then determined using a Perkin Elmer Topcount NXT microplate reader. In brief, HeLa cells adhere to the bottom of the Cytostar-T plate, uptake of [^3H]adenosine into these cells brings the radiolabel into sufficient proximity to excite the scintillant in the base of the plates. These events are captured by single PMT, time-resolved coincidence counting. IC50 values were determined by 4 parameter robust fit of counts per second values vs. (Log10) compound concentrations.

[2] = target: T1, BTK enzyme (recombinant full-length BTK, hBTK) (Homo sapiens, UniProt Q06187); assay: BTK enzyme activity assay, LANCE TR-FRET; type: biochemical; settings: 50 pM hBTK, 2 μM biotin-A5-peptide, 25 μM ATP; 60 min compound & enzyme incubation; read-out: IC50 BTK activity value
T1 construct: recombinant protein from baculovirus-transfected Sf9 cells: full-length BTK, 6HIS-tag cleaved; 6HIS (cleaved yes); made in house; host or cells: baculovirus-transfected Sf9 cells
T1 sequence (Q06187 whole entry): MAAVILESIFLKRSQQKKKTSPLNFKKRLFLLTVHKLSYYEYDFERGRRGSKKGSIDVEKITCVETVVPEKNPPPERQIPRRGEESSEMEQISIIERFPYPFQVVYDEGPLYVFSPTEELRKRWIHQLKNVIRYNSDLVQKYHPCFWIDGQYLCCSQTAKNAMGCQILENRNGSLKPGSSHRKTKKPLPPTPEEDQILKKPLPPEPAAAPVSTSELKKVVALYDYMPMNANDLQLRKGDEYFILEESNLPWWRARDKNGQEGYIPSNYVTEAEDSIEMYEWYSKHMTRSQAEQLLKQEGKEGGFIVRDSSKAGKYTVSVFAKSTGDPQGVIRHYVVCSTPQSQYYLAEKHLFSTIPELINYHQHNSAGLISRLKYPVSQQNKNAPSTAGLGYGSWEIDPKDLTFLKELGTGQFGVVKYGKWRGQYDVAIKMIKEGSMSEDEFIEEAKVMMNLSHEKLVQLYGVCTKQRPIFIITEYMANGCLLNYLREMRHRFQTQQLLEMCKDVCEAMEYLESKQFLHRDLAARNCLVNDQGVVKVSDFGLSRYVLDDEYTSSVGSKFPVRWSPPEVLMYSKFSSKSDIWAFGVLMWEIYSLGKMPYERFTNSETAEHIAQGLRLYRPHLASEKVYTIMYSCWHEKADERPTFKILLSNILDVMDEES

Structure (SMILES) | pIC50 [1] | pIC50 [2]
C[C@H]1OC(=O)N2C[C@H](c3nc(-c4ccc(C(=O)Nc5cc(C(F)(F)F)ccn5)cc4F)c4c(N)nccn34)CC[C@@H]12 [Example 31, 4-{8-amino-3-[(1R,6R,8aS)-1-methyl-3-oxohexahydro[1,3]oxazolo[3,4-a]pyridin-6-yl]imidazo[1,5-a]pyrazin-1-yl}-3-fluoro-N-[4-(trifluoromethyl)pyridin-2-yl]benzamide] | 6.99 | 10.02
C[C@@H]1OC(=O)N2C[C@H](c3nc(-c4ccc(C(=O)Nc5cc(C(F)(F)F)ccn5)cc4F)c4c(N)nccn34)CC[C@@H]12 [Example 33, 4-{8-amino-3-[(1S,6R,8aS)-1-methyl-3-oxohexahydro[1,3]oxazolo[3,4-a]pyridin-6-yl]imidazo[1,5-a]pyrazin-1-yl}-3-fluoro-N-[4-(trifluoromethyl)pyridin-2-yl]benzamide] | 7.04 | 9.77
COc1cc(C(=O)Nc2cc(C3CC3)ccn2)ccc1-c1nc([C@@H]2CC[C@H]3CCC(=O)N3C2)n2ccnc(N)c12 [Example 38, 4-{8-amino-3-[(6R,8aS)-3-oxooctahydroindolizin-6-yl]imidazo[1,5-a]pyrazin-1-yl}-N-(4-cyclopropylpyridin-2-yl)-3-methoxybenzamide] | 6.27 | 8.72
Nc1nccn2c([C@@H]3CC[C@H]4COCC(=O)N4C3)nc(-c3ccc(C(=O)Nc4cc(C(F)(F)F)ccn4)cc3F)c12 [Example 39] | 7.24 | 9.92
Nc1nccn2c([C@@H]3CC[C@H]4CNCC(=O)N4C3)nc(-c3ccc(C(=O)Nc4cc(C(F)(F)F)ccn4)cc3)c12 [Example 40, 4-{8-amino-3-[(7R,9aS)-4-oxooctahydro-2H-pyrido[1,2-a]pyrazin-7-yl]imidazo[1,5-a]pyrazin-1-yl}-N-[4-(trifluoromethyl)pyridin-2-yl]benzamide] | 6.73 | 9.66
Nc1nccn2c([C@H]3CC[C@@H]4CNCC(=O)N4C3)nc(-c3ccc(C(=O)Nc4cc(C(F)(F)F)ccn4)cc3)c12 [Example 41, 4-{8-amino-3-[(7S,9aR)-4-oxooctahydro-2H-pyrido[1,2-a]pyrazin-7-yl]imidazo[1,5-a]pyrazin-1-yl}-N-[4-(trifluoromethyl)pyridin-2-yl]benzamide] | 6.10 | 8.40
Nc1nccn2c([C@@H]3CC[C@H]4CCC(=O)N4C3)nc(-c3ccc(C(=O)Nc4cc(C(F)(F)F)ccn4)c(Cl)c3)c12 [Example 42, 4-{8-amino-3-[(6R,8aS)-3-oxooctahydroindolizin-6-yl]imidazo[1,5-a]pyrazin-1-yl}-2-chloro-N-[4-(trifluoromethyl)pyridin-2-yl]benzamide] | 7.06 | 9.28
Nc1nccn2c([C@H]3CC[C@@H]4CCCC(=O)N4C3)nc(-c3ccc(C(=O)Nc4cc(C(F)(F)F)ccn4)cc3F)c12 [Example 44, 4-{8-amino-3-[(3S,9aS)-6-oxooctahydro-2H-quinolizin-3-yl]imidazo[1,5-a]pyrazin-1-yl}-3-fluoro-N-[4-(trifluoromethyl)pyridin-2-yl]benzamide] | 7.05 | 10.02
Nc1nccn2c([C@@H]3CC[C@H]4CCCC(=O)N4C3)nc(-c3ccc(C(=O)Nc4cc(C(F)(F)F)ccn4)cc3F)c12 [Example 45, 4-{8-amino-3-[(3R,9aR)-6-oxooctahydro-2H-quinolizin-3-yl]imidazo[1,5-a]pyrazin-1-yl}-3-fluoro-N-[4-(trifluoromethyl)pyridin-2-yl]benzamide] | 6.64 | 8.77
C[C@@H]1OC(=O)N2C[C@H](c3nc(-c4ccc(C(=O)Nc5cc(C6CC6)ccn5)cc4)c4c(N)nccn34)CC[C@@H]12 [Example 46, 4-{8-amino-3-[(1S,6R,8aS)-1-methyl-3-oxohexahydro[1,3]oxazolo[3,4-a]pyridin-6-yl]imidazo[1,5-a]pyrazin-1-yl}-N-(4-cyclopropylpyridin-2-yl)benzamide] | 7.15 | 9.28
C[C@H]1OC(=O)N2C[C@H](c3nc(-c4ccc(C(=O)Nc5cc(C6CC6)ccn5)cc4)c4c(N)nccn34)CC[C@@H]12 [Example 47, 4-{8-amino-3-[(1R,6R,8aS)-1-methyl-3-oxohexahydro[1,3]oxazolo[3,4-a]pyridin-6-yl]imidazo[1,5-a]pyrazin-1-yl}-N-(4-cyclopropylpyridin-2-yl)benzamide] | 7.50 | 9.77
C[C@@H]1OC(=O)N2C[C@H](c3nc(-c4ccc(C(=O)Nc5cc(C(F)(F)F)ccn5)cc4)c4c(N)nccn34)CC[C@@H]12 [Example 48, 4-{8-amino-3-[(1S,6R,8aS)-1-methyl-3-oxohexahydro[1,3]oxazolo[3,4-a]pyridin-6-yl]imidazo[1,5-a]pyrazin-1-yl}-N-[4-(trifluoromethyl)pyridin-2-yl]benzamide] | 7.03 | 9.85
C[C@H]1OC(=O)N2C[C@H](c3nc(-c4ccc(C(=O)Nc5cc(C(F)(F)F)ccn5)cc4)c4c(N)nccn34)CC[C@@H]12 [Example 49, 4-{8-amino-3-[(1R,6R,8aS)-1-methyl-3-oxohexahydro[1,3]oxazolo[3,4-a]pyridin-6-yl]imidazo[1,5-a]pyrazin-1-yl}-N-[4-(trifluoromethyl)pyridin-2-yl]benzamide] | 7.29 | 9.96
CN1CC(=O)N2C[C@H](c3nc(-c4ccc(C(=O)Nc5cc(C(F)(F)F)ccn5)cc4)c4c(N)nccn34)CC[C@H]2C1 [Example 50, 4-{8-amino-3-[(7R,9aS)-2-methyl-4-oxooctahydro-2H-pyrido[1,2-a]pyrazin-7-yl]imidazo[1,5-a]pyrazin-1-yl}-N-[4-(trifluoromethyl)pyridin-2-yl]benzamide] | 7.35 | 9.59
CN1CC(=O)N2C[C@@H](c3nc(-c4ccc(C(=O)Nc5cc(C(F)(F)F)ccn5)cc4)c4c(N)nccn34)CC[C@@H]2C1 [Example 51, 4-{8-amino-3-[(7S,9aR)-2-methyl-4-oxooctahydro-2H-pyrido[1,2-a]pyrazin-7-yl]imidazo[1,5-a]pyrazin-1-yl}-N-[4-(trifluoromethyl)pyridin-2-yl]benzamide] | 6.73 | 8.80
CC1(C)OC(=O)N2C[C@H](c3nc(-c4ccc(C(=O)Nc5cc(C(F)(F)F)ccn5)cc4)c4c(N)nccn34)CC[C@H]21 [Example 52, 4-{8-amino-3-[(6R,8aS)-1,1-dimethyl-3-oxohexahydro[1,3]oxazolo[3,4-a]pyridin-6-yl]imidazo[1,5-a]pyrazin-1-yl}-N-[4-(trifluoromethyl)pyridin-2-yl]benzamide] | 7.30 | 9.89
COc1cc(C(=O)Nc2cc(C3CC3)ccn2)ccc1-c1nc([C@@H]2CC[C@H]3[C@@H](C)OC(=O)N3C2)n2ccnc(N)c12 [Example 53, 4-{8-amino-3-[(1R,6R,8aS)-1-methyl-3-oxohexahydro[1,3]oxazolo[3,4-a]pyridin-6-yl]imidazo[1,5-a]pyrazin-1-yl}-N-(4-cyclopropylpyridin-2-yl)-3-methoxybenzamide] | 6.53 | 9.30
Nc1nccn2c([C@H]3CC[C@@H]4COCCN4C3)nc(-c3ccc(C(=O)Nc4cc(C(F)(F)F)ccn4)cc3)c12 [Example 56, 4-{8-amino-3-[(7S,9aR)-octahydropyrido[2,1-c][1,4]oxazin-7-yl]imidazo[1,5-a]pyrazin-1-yl}-N-[4-(trifluoromethyl)pyridin-2-yl]benzamide] | 6.94 | 8.74
